Experimental data taken from patent publication US20250025451A1, “TREATMENT OF CANCER WITH KDM4 INHIBITORS” (Celgene Corporation, priority 2021, published 2025).
Several values for one entry are separate records, joined by “and”; a condition that tells them apart may be missing. Identical values can stand only once. Like-named read-outs stand apart in the source and are kept apart here.

What was measured:
ZR-75-1 = assay: cell-proliferation assay (MTS), ZR-75-1; assay type: cell-based; conditions: ZR-75-1, human breast carcinoma, 168 hours
Description: Compound 1 was evaluated in in vitro cell-proliferation assays (BrdU assay, MTS assay, or Cell Titer Glo (CTG) assay) in multiple cancer cell lines and patient-derived organoid models to determine half-maximal inhibitory concentrations (IC50s).
Viability and BrdU thymidine incorporation assays were performed in multiwell plates seeded with cells in growth medium. After seeding, multiwell plates were cultured for 24 hours in a humidified incubator at 37° C. to promote adherence. […] The cultures were incubated for 168 hours after which the number of viable cells or the amount of thymidine incorporation in each test well was assessed by the methods as indicated above. Readouts were performed using an EnVision® Multilabel Reader (PerkinElmer, Waltham, MA) and the results were expressed as a percent of the negative control. Percent of Control values were plotted against the corresponding Compound 1 concentration and the relative IC50 value was determined from a non-linear regression curve as the concentration where inhibition was half-maximal. For cell lines where the number of IC50 determinations exceeded one, the IC50 was expressed as the mean IC50±SD.
Half-maximal inhibitory concentration (IC50) values for Compound 1 inhibition of cell proliferation were determined for nine cancer cell lines and one normal human fibroblastcell line.

[1] = system: T002C patient-derived colon cancer organoid model; assay: organoid colony formation assay, T002C; assay type: cell-based, human
Description: (§1) The IC50 values for Compound 1 inhibition of colony formation and viability were determined for the patient-derived colon cancer organoid models: SU60, T002C, SU62, SU34, SU103, T03SC, and SU106, patient-derived pancreatic cancer organoid models PA016SF, PA0143F, T016P, and T028P, and a patient-derived breast cancer organoid model FS5S3.
(§2) Colony formation and viability assays were performed in multiwell plates seeded with organoids using an in vitro culture system composed of a Matrigel layer, media containing a defined set of growth factors, and co-culture with Wnt3 A-secreting mouse embryonic fibroblasts. Assays were initiated by adding either DMSO as a negative control, or an inhibitor panobinostatat 100×IC50 concentration as a positive control, or serially diluted Compound 1. The cultures were incubated for 168 or 144 hours after which the number of viable organoids in each test well was assessed respectively using one of two detection methods: CTG or staining with calcein-AM followed by imaging and colony counting. Colony count or viability of cells treated with compound 1 was expressed as a percent of the negative control. Aggregated Percent of Control values were plotted against the corresponding Compound 1 concentration and the absolute IC50 value was determined from a non-linear regression curve as the concentration where inhibition was 50% of the control.

[2] = system: T035C patient-derived colon cancer organoid model; assay: organoid colony formation assay, T035C; assay type: cell-based, human
Description: as §1, §2

[3] = system: PA0143F patient-derived pancreatic cancer organoid model; assay: organoid colony formation assay, PA0143F; assay type: cell-based, human
Description: as §1, §2

[4] = system: T016P patient-derived pancreatic cancer organoid model; assay: organoid colony formation assay, T016P; assay type: cell-based, human
Description: as §1, §2

[5] = system: tumor initiating cells of SU60 xenograft tumors; assay: functional in vivo tumorigenicity assay (limiting dilution assay); parameters: species or system mice
Description: The ability of Compound 1 to affect tumorigenic potential was analyzed by flow cytometry analysis of the tumorigenic cell population and functional in vivo tumorigenicity assay (limiting dilution assay).
To assess the effect of Compound 1 on tumorigenic cell population, Compound 1 was used to treat SU60 xenograft tumors. NSG female mice engrafted with SU60 cells (7 mice each group) were administered Compound 1 at 40 mg/kg PO QD×21. The day after the last dose, three tumors nearest to the mean size from each group were dissociated and the single cells were used to perform: 1) flow cytometry analysis of the tumorigenic cell population and 2) functional in vivo tumorigenicity assay (limiting dilution assay). Flow Cytometry Analysis of Tumorigenic Cell Population after Compound 1 Treatment
To study the effect of Compound 1 on tumor initiating cell (TIC) frequency in CRC tumors, we evaluated the tumorigenic potential of SU60 xenograft cells posttreatment with Compound 1 or vehicle. At the end of dosing, SU60 dissociated cells from three animals per group nearest to the mean size were injected in a limiting dilution manner into recipient NSG mice and tumor volumes were measured. The number of cells required for tumor formation was reduced in the Compound 1-treated group. The reduction in TIC frequency was 4.4-fold (FIG. 17 and Table 10). Differentiation of progenitor cells is a potential explanation for this reduction.

[6] = system: colorectal cancer organoid PDX models; assay: culture-based viability inhibition assay, colorectal cancer organoid PDX models; assay type: cell-based; conditions: for Sensitive to Compound 1 (models sensitive/tested): sensitive = IC50<1 μM
Description: A panel of 13 colorectal cancer PDX models and 6 colorectal cancer organoid PDX models were tested for their sensitivity to Compound 1 in culture-based viability inhibition assays. The MSI-H status of the studied colorectal cancer cell lines and their respective mutations of the MMR path genes are shown in FIG. 19.

[7] = system: gene expression (PNUTS, ANK1, IBA57, SOWAHD, MF12-AS1, CECR1); assay: RNA-seq analysis of pharmacodynamic biomarkers in diffuse large B-Cell Lymphoma xenografts; assay type: in vivo
Description: RNA-seq and ChIP-seq analyses were employed to identify potential clinical pharmacodynamic (PD) biomarkers as molecular indicators for monitoring the effects of treatment with Compound 1.
[…] In the ChIP-seq analysis, 65 genes were identified to show direct KDM4C promoter occupancy.

MDA-MB-231 cells = assay: cell cycle analysis in MDA-MB-231 cells; assay type: cell-based
Description: FIG. 3 illustrates that Compound 1 induces cell cycle arrest in S-phase. […] Cell cycle analysis was performed with MDA-MB-231 cells and using MultiCycle AV DNA analysis software.

[8] = SU60 cells from tumors treated 40 mg/kg QD, injected into recipient NSG mice, 50 cells
[9] = SU60 cells from tumors treated 40 mg/kg QD, injected into recipient NSG mice, 500 cells
[10] = SU60 cells from tumors treated 40 mg/kg QD, injected into recipient NSG mice, 1000 cells
[11] = MSS (Organoid) colorectal cancer models
[12] = in vivo at 2.5, 5, 7.5, 15 and 50 mg/kg, dose-dependent

CC(C)c1ccc(N(C)c2ccc3c(c2)OCC[C@H]3CNc2cnccc2C(=O)O)cc1 [Compound 1, 3-({[(4R)-7-{methyl[4-(propan-2-yl)phenyl]amino}-3,4-dihydro-2H-1-benzopyran-4-yl]methyl}amino)pyridine-4-carboxylic acid]
IC50 (ZR-75-1): > 10 µM
IC50 ([1]; Homo sapiens, T002C colorectal carcinoma model): < 0.15 µM
IC50 ([1]; T002C human colorectal carcinoma organoid, 144 hrs, Colony Counts): 0.022 µM
IC50 ([2]; Homo sapiens, T035C colorectal carcinoma model): > 10 µM
IC50 ([2]; T035C human colorectal carcinoma organoid, 144 hrs, Colony Counts): > 10 µM
IC50 ([3]; Homo sapiens, PA0143F pancreatic carcinoma model): > 10 µM
IC50 ([3]; PA0143F human pancreatic carcinoma organoid, 144 hrs, Colony Counts): > 10 µM
IC50 ([4]; Homo sapiens, T016P pancreatic carcinoma model): > 10 µM
IC50 ([4]; T016P human pancreatic carcinoma organoid, 144 hrs, Colony Counts): > 10 µM
Mean Tumor Volume (50 cells) [5, 8]: 209 mm^3
Tumor Take Rate (50 cells) [5, 8]: 3/10
Mean Tumor volume (500 cells) [5, 9]: 589 mm^3
Tumor Take Rate (500 cells) [5, 9]: 5/10
Mean Tumor Volume (1000 cells) [5, 10]: 830 mm^3
Tumor Take Rate (1000 cells) [5, 10]: 7/10
reduction in TIC frequency ([5]; SU60 xenograft, 40 mg/kg PO QD x21, vs vehicle): 4.4 fold
IC50 ([6]; MSI (Organoid) colorectal cancer models, read-out: IC50 (range over sensitive models)): 0.022 to 0.149 µM
Sensitive to Compound 1 (models sensitive/tested) ([6]; MSI (Organoid) colorectal cancer models): 3 out of 3 and 3/3
Sensitive to Compound 1 (percent of models) [6, 11]: (0%)
IC50 ([6]; MSS (Organoid) colorectal cancer models, read-out: IC50): > 10 µM
Sensitive to Compound 1 (models sensitive/tested) [6, 11]: 0 out of 3 and 0/3
number of genes up- or downregulated ≥2-fold ([7]; RNA-seq, 37.3 mg/kg, diffuse large B-Cell Lymphoma xenografts models): 326
change of PNUTS, ANK1, and IBA57 gene expression [7, 12]: downregulated
change of SOWAHD, MF12-AS1, and CECR1 gene expression [7, 12]: upregulated
effect on cell cycle (MDA-MB-231 cells): increased proportion of cells in S-phase in a dose-dependent manner
